The subject of this assay is PDE1. Description: In vitro HTRF PDE1 inhibition assay. In kind it is biochemical. As to conditions: HTRF cGMP assay, 100 nM cyclic GMP, PDE (1A3, 1B or 1C) with calmodulin, 45 minutes at 37° C.; isoform of the tabulated values not stated. The procedure, abridged: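 Activities are given as IC50 bands (<1, 1-10, >10 μM) derived from a 665/615 nm time-resolved FRET readout after d2-cGMP/anti-cGMP cryptate detection. Enzymes PDE1A3, 1B or 1C plus calmodulin were incubated 45 min at 37 °C with 100 nM cGMP, 1% DMSO, CaCl2/MgCl2 Tris buffer pH 7.4.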
(In general: In TR-FRET formats the signal depends on donor and acceptor labels being close together.)
`CC(C)n1ncc2c(=O)n3c(nc21)CN(Cc1cccnc1)CC3` [Compound I-135, 1-Isopropyl-8-(pyridin-3-ylmethyl)-6,7,8,9-tetrahydropyrazino[1,2-a]pyrazolo[3,4-d]pyrimidin-4(1H)-one] came in with an IC50 of under 1000 nM.
In turn, `COc1cccc(CN2CCn3c(nc4c(cnn4CC(C)C)c3=O)C2)c1` [Compound I-80, 1-Isobutyl-8-(3-methoxybenzyl)-6,7,8,9-tetrahydropyrazino[1,2-a]pyrazolo[3,4-d]pyrimidin-4(1H)-one] showed an IC50 of 1000 to 10000 nM.
In turn, `O=c1c2cnc(C3CCOC3)n2nc2n1CCN(Cc1ccccc1)C2` (racemic) [Compound I-231, (±)-7-Benzyl-3-(tetrahydrofuran-3-yl)-8,9-dihydro-6H-imidazo[5,1-f]pyrazino[2,1-c][1,2,4]triazin-11(7H)-one] yielded an IC50 of under 1000 nM.
The compound `COc1ccc(CN2CCn3c(nn4c(CC(C)C)nnc4c3=O)C2)cc1` [Compound I-213, 3-Isobutyl-7-(4-methoxybenzyl)-8,9-dihydro-6H-pyrazino[2,1-c][1,2,4]triazolo[3,4-f][1,2,4]triazin-11(7H)-one] displayed an IC50 of under 1000 nM.
`CC(C)c1nn(C)c2c(=O)n3c(nc12)C(Cc1ccccc1)NCC3` (racemic) [Compound I-15, (±)-5-Benzyl-3-isopropyl-1-methyl-5,6,7,8-tetrahydropyrazino[1,2-a]pyrazolo[4,3-d]pyrimidin-10(1H)-one] gave an IC50 of over 10000 nM.
As for `CC1CN(C)Cc2nc3c(cnn3C3CCCC3)c(=O)n21` (racemic) [Compound I-100, (±)-1-Cyclopentyl-6,8-dimethyl-6,7,8,9-tetrahydropyrazino[1,2-a]pyrazolo[3,4-d]pyrimidin-4(1H)-one], the IC50 is over 10000 nM.
`CC1c2nc3c(cnn3-c3ccccc3)c(=O)n2CCN1Cc1ccccc1` (racemic) [Compound I-33, (±)-8-Benzyl-9-methyl-1-phenyl-6,7,8,9-tetrahydropyrazino[1,2-a]pyrazolo[3,4-d]pyrimidin-4(1H)-one] had an IC50 of over 10000 nM.
As for `CCCn1ncc2c(=O)n3c(nc21)CN(Cc1cccc(OC)c1)CC3` [Compound I-254, 8-(3-Methoxybenzyl)-1-propyl-6,7,8,9-tetrahydropyrazino[1,2-a]pyrazolo[3,4-d]pyrimidin-4(1H)-one], the IC50 lay within 1000 to 10000 nM.
Then `CC1NCCn2c1nc1c(cnn1-c1ccccc1)c2=O` (racemic) [Compound I-5, (±)-9-Methyl-1-phenyl-6,7,8,9-tetrahydropyrazino[1,2-a]pyrazolo[3,4-d]pyrimidin-4(1H)-one], with over 10000 nM; and `O=c1c2cnc(C3CCOCC3)n2nc2n1CCN(c1ccc(Cl)cc1)C2` [Compound I-236, 7-(4-Chlorophenyl)-3-(tetrahydro-2H-pyran-4-yl)-8,9-dihydro-6H-imidazo[5,1-f]pyrazino[2,1-c][1,2,4]triazin-11(7H)-one], with under 1000 nM; and `O=c1c2cnn(-c3ccccc3)c2nc2n1CCNC2` [Compound I-2, 1-Phenyl-6,7,8,9-tetrahydropyrazino[1,2-a]pyrazolo[3,4-d]pyrimidin-4(1H)-one], with over 10000 nM.
Regarding `Cc1ccc(CN2CCn3c(nn4c(C5CCCC5)ncc4c3=O)C2)cn1` [Compound I-189, 3-Cyclopentyl-7-((6-methylpyridin-3-yl)methyl)-8,9-dihydro-6H-imidazo[5,1-f]pyrazino[2,1-c][1,2,4]triazin-11(7H)-one], the IC50 was under 1000 nM.
`Cc1ccc(CN2CCn3c(nc4c(cnn4C(C)C)c3=O)C2)cn1` [Compound I-186, 1-Isopropyl-8-((6-methylpyridin-3-yl)methyl)-6,7,8,9-tetrahydropyrazino[1,2-a]pyrazolo[3,4-d]pyrimidin-4(1H)-one] returned an IC50 of 1000 to 10000 nM.
For the compound `COCCn1ncc2c(=O)n3c(nc21)CN(Cc1ccc(Cl)cc1)CC3` [Compound I-159, 8-(4-Chlorobenzyl)-1-(2-methoxyethyl)-6,7,8,9-tetrahydropyrazino[1,2-a]pyrazolo[3,4-d]pyrimidin-4(1H)-one], the IC50 is 1000 to 10000 nM.
For `COc1ccccc1N1CCn2c(nc3c(cnn3C3CCCC3)c2=O)C1` [Compound I-96, 1-Cyclopentyl-8-(2-methoxyphenyl)-6,7,8,9-tetrahydropyrazino[1,2-a]pyrazolo[3,4-d]pyrimidin-4(1H)-one], the IC50 lay within 1000 to 10000 nM.
Then `CC1c2nc3c(cnn3C)c(=O)n2CCN1C` (racemic) [Compound I-20, (±)-1,8,9-Trimethyl-6,7,8,9-tetrahydropyrazino[1,2-a]pyrazolo[3,4-d]pyrimidin-4(1H)-one], with over 10000 nM.
Take `CC1Cn2c(nc3c(cnn3C(C)C)c2=O)CN1Cc1ccc(Cl)cc1` (racemic) [Compound I-147, (±)-8-(4-Chlorobenzyl)-1-isopropyl-7-methyl-6,7,8,9-tetrahydropyrazino[1,2-a]pyrazolo[3,4-d]pyrimidin-4(1H)-one]: the 50% inhibitory concentration (IC50) is under 1000 nM.
`COc1ccccc1CN1CCn2c(nc3c(cnn3C3CCCC3)c2=O)C1` [Compound I-78, 1-Cyclopentyl-8-(2-methoxybenzyl)-6,7,8,9-tetrahydropyrazino[1,2-a]pyrazolo[3,4-d]pyrimidin-4(1H)-one] gave a concentration for half-maximal inhibition (IC50) of under 1000 nM.
Then `Cc1cnc(CN2CCn3c(nc4c(cnn4C(C)C)c3=O)C2)cn1` [Compound I-206, 1-Isopropyl-8-((5-methylpyrazin-2-yl)methyl)-6,7,8,9-tetrahydropyrazino[1,2-a]pyrazolo[3,4-d]pyrimidin-4(1H)-one], with 1000 to 10000 nM; and `O=c1c2[nH]nc(C3CCCC3)c2nc2n1CCN(Cc1ccc(Cl)cc1)C2` [Compound I-124, 6-(4-Chlorobenzyl)-3-cyclopentyl-5,6,7,8-tetrahydropyrazino[1,2-a]pyrazolo[4,3-d]pyrimidin-10(1H)-one], with 1000 to 10000 nM; and `CCOc1cccc(N2CCn3c(nc4c(cnn4C(C)C)c3=O)C2)c1` [Compound I-141, 8-(3-Ethoxyphenyl)-1-isopropyl-6,7,8,9-tetrahydropyrazino[1,2-a]pyrazolo[3,4-d]pyrimidin-4(1H)-one], with under 1000 nM.
Take `Cn1ncc2c(=O)n3c(nc21)C(Cc1ccccc1)N(Cc1ccccc1)CC3` (racemic) [Compound I-35, (±)-8,9-Dibenzyl-1-methyl-6,7,8,9-tetrahydropyrazino[1,2-a]pyrazolo[3,4-d]pyrimidin-4(1H)-one]: the IC50 was over 10000 nM.
`O=c1c2cnn(C3CCCC3)c2nc2n1CCN(c1ccc(Cl)cc1)C2` [Compound I-93, 8-(4-Chlorophenyl)-1-cyclopentyl-6,7,8,9-tetrahydropyrazino[1,2-a]pyrazolo[3,4-d]pyrimidin-4(1H)-one] came in with an IC50 of under 1000 nM.
With `CCCn1ncc2c(=O)n3c(nc21)CN(Cc1cccc(Cl)c1)CC3` [Compound I-166, 8-(3-Chlorobenzyl)-1-propyl-6,7,8,9-tetrahydropyrazino[1,2-a]pyrazolo[3,4-d]pyrimidin-4(1H)-one], the IC50 fell in the range of 1000 to 10000 nM.
As to `CC(C)n1ncc2c(=O)n3c(nc21)CN(Cc1ccc2c(c1)OCO2)CC3` [Compound I-170, 8-(Benzo[d][1,3]dioxol-5-ylmethyl)-1-isopropyl-6,7,8,9-tetrahydropyrazino[1,2-a]pyrazolo[3,4-d]pyrimidin-4(1H)-one], the IC50 is 1000 to 10000 nM.
The compound `CN1CCn2c(nc3c(cnn3C)c2=O)C1Cc1ccccc1` (racemic) [Compound I-24, (±)-9-Benzyl-1,8-dimethyl-6,7,8,9-tetrahydropyrazino[1,2-a]pyrazolo[3,4-d]pyrimidin-4(1H)-one] came in with an IC50 of over 10000 nM.
Then `COc1ccccc1CN1CCn2c(nc3c(cnn3C(C)C)c2=O)C1` [Compound I-76, 1-Isopropyl-8-(2-methoxybenzyl)-6,7,8,9-tetrahydropyrazino[1,2-a]pyrazolo[3,4-d]pyrimidin-4(1H)-one], with 1000 to 10000 nM.
In turn, `CC1Cn2c(nc3c(cnn3C3CCCC3)c2=O)CN1Cc1ccc(Cl)cc1` (racemic) [Compound I-119, (±)-8-(4-Chlorobenzyl)-1-cyclopentyl-7-methyl-6,7,8,9-tetrahydropyrazino[1,2-a]pyrazolo[3,4-d]pyrimidin-4(1H)-one] displayed an IC50 of under 1000 nM.
Under `COCCn1ncc2c(=O)n3c(nc21)CN(Cc1cccc(Cl)c1)CC3` [Compound I-162, 8-(3-Chlorobenzyl)-1-(2-methoxyethyl)-6,7,8,9-tetrahydropyrazino[1,2-a]pyrazolo[3,4-d]pyrimidin-4(1H)-one] stands 1000 to 10000 nM; under `CC(C)n1ncc2c(=O)n3c(nc21)CN(Cc1ccccc1)C(c1ccccc1)C3` (racemic) [Compound I-108, (±)-8-Benzyl-1-isopropyl-7-phenyl-6,7,8,9-tetrahydropyrazino[1,2-a]pyrazolo[3,4-d]pyrimidin-4(1H)-one], over 10000 nM.
In turn, `CC(C)c1n[nH]c2c(=O)n3c(nc12)CNCC3` [Compound I-10, 3-Isopropyl-5,6,7,8-tetrahydropyrazino[1,2-a]pyrazolo[4,3-a]pyrimidin-10(1H)-one] yielded an IC50 of over 10000 nM.
On to `O=C(c1ccc(Cl)cc1)N1CCn2c(nc3c(cnn3C3CCCC3)c2=O)C1` [Compound I-115, 8-(4-Chlorobenzoyl)-1-cyclopentyl-6,7,8,9-tetrahydropyrazino[1,2-a]pyrazolo[3,4-d]pyrimidin-4(1H)-one], for which the IC50 lay within 1000 to 10000 nM.
On to `COc1cccc(N2CCn3c(nc4c(cnn4C4CCCC4)c3=O)C2)c1` [Compound I-98, 1-Cyclopentyl-8-(3-methoxyphenyl)-6,7,8,9-tetrahydropyrazino[1,2-a]pyrazolo[3,4-d]pyrimidin-4(1H)-one], for which the IC50 is under 1000 nM.
Compound `COc1ccc(CN2CCn3c(nc4c(cnn4C4CCOCC4)c3=O)C2)cc1` [Compound I-210, 8-(4-Methoxybenzyl)-1-(tetrahydro-2H-pyran-4-yl)-6,7,8,9-tetrahydropyrazino[1,2-a]pyrazolo[3,4-d]pyrimidin-4(1H)-one] came in with an IC50 of 1000 to 10000 nM.

One may read the IC50 as the concentration needed to halve the response being measured. High values mean weaker potency, low ones greater potency.

Values taken from patent publication US20160083391A1, “TRICYCLIC PIPERAZINE DERIVATIVE” (Sunovion Pharmaceuticals Inc., priority 2014, published 2016).
